{
  "source": "patent US20080233191A1",
  "about": "“USE OF RANOLAZINE FOR ELEVATED BRAIN-TYPE NATRIURETIC PEPTIDE” (priority 2007, published 2008)",
  "system": "patients with non-ST elevation ACS",
  "test": "MERLIN-TIMI 36 trial: randomized, double-blind, placebo-controlled; effect of ranolazine stratified by baseline BNP",
  "type": "in vivo, human",
  "settings": "ranolazine vs placebo",
  "text": "Ranolazine is believed to exert anti-ischemic effects through a reduction in myocardial cellular sodium and calcium overload with a consequent reduction in wall stress. B-type natriuretic peptide (BNP) is released in response to increased wall stress and is a potent indicator of risk in acute coronary syndromes (ACS). This study was a prospective evaluation of the interaction between BNP and the effect of ranolazine as part of a randomized, double-blind, placebo-controlled trial.\nPlasma BNP were measured (ADVIA® BNP) at baseline (N=4543), 14 days (N=4079), and the Final Visit (N=3328) of the patients with non-ST elevation ACS randomized to ranolazine or placebo in the MERLIN-TIMI 36 trial. Patients were stratified using BNP>80 pg/mL based upon prior work with this assay. The primary endpoint of the trial was a composite of cardiovascular death, myocardial infarction, or recurrent ischemia (CVD/Ml/Rl).",
  "data": [
    {"molecule": "COc1ccccc1OCC(O)CN1CCN(CC(=O)Nc2c(C)cccc2C)CC1", "note": "(racemic) [ranolazine, (±)-N-(2,6-dimethylphenyl)-4-[2-hydroxy-3-(2-methoxyphenoxy)propyl]-1-piperazine-acetamide]", "values": [
      {"measurement": "endpoint component of worsening angina, HR", "setting": "BNP>80 pg/mL, CI 0.35-0.84, p=0.005", "result": 0.55},
      {"measurement": "endpoint component of worsening angina, HR", "setting": "BNP≦80 pg/mL, 95% CI 0.63-1.28, p=0.55", "result": 0.90},
      {"measurement": "primary endpoint (composite of cardiovascular death, myocardial infarction, or recurrent ischemia), HR", "setting": "patients with BNP>80 pg/mL, 95% CI 0.66-0.94, p=0.009", "result": 0.79},
      {"measurement": "primary endpoint (composite of cardiovascular death, myocardial infarction, or recurrent ischemia), effect", "setting": "patients with a negative BNP result, p-interaction=0.052", "result": "lack of detectable effect"}
    ]}
  ]
}
